Reference: ChEMBL document CHEMBL1121659 (J Med Chem, 1981)
Activity calls are given as the source filed them. The calls are words filed in the database; no cut-off is given here.

What was measured:
Mus musculus [1] = experiment: Compound was evaluated for the neuro toxicity up to 4 hours after doses of <=300 mg/kg administered intraperitoneally; No toxicity; assay type: organism-based; settings: in vivo, ip
Mus musculus [2] = experiment: Compound was evaluated for the dose required for protection against scMET-induced seizures after 4 hours of intraperitoneal administration; Inactive; assay type: functional, organism-based
Mus musculus [3] = experiment: Compound was evaluated for the dose required for protection against MES-induced seizures after 4 hours of intraperitoneal administration; Inactive; assay type: functional, organism-based
Mus musculus [4] = experiment: Compound was evaluated for the dose required for protection against scMET-induced seizures after 4 hours of intraperitoneal administration; assay type: functional
[5] = Compound was evaluated for the biliary excretion in the anesthetized rats in 6 hours after intravenous doses 1 mg/kg; assay type: ADME, organism-based; parameters: dose 1 mg/kg, route intravenous; settings: rat, bile, read-out: Excretion
Mus musculus [6] = experiment: Compound was evaluated for the biological half-life in mouse after a dose of 40 mg/kg given intraperitoneally; settings: in vivo, ip
Mus musculus [7] = experiment: Compound was evaluated for the dose required for protection against MES-induced seizures after 4 hours of intraperitoneal administration; assay type: functional
[8] = Compound was evaluated for the biological half-life in rat after a dose of 10 mg/kg given intravenously; assay type: ADME, organism-based; parameters: dose 10 mg/kg, route intravenous; settings: in vivo, iv
[9] = Compound was evaluated for the biliary excretion in the anesthetized rats in 6 hours after intravenous doses 10 mg/kg; assay type: ADME, organism-based; parameters: dose 10 mg/kg, route intravenous; settings: rat, bile, read-out: Excretion

dose excreted at 6 h [5] [%]	T1/2 (Mus musculus [6]) [min]	half-life [8] [min]	dose excreted at 6 h [9] [%]	Compound	Neurotoxicity (Mus musculus [1])	Activity (Mus musculus [2])	Activity (Mus musculus [3])	Activity (Mus musculus [4])	Activity (Mus musculus [7]) [mmol/kg]
–	–	–	–	O=C1NC(=O)C(c2ccc(C(F)(F)F)cc2)(c2cccc(C(F)(F)F)c2)N1 (centres undefined)	No toxicity	inactive	inactive	–	–
54	990	30	28	O=C1NC(=O)C(c2ccccc2)(c2ccccc2)N1 [PHENYTOIN]	–	–	–	inactive	0.038
